Consider 24 molecules from ChEMBL document CHEMBL4422664, “2-Benzoylbenzofuran derivatives possessing piperazine linker as anticancer agents” (Bioorg Med Chem Lett, 2019).

For orientation: IC50 means the concentration at which inhibition is half-maximal.

Structures are written as SMILES. A value given as a limit tells only on which side of the number the result lay.

In one experiment the test system is HeLa. The experiment can be described thus: Cytotoxicity against human HeLa assessed as reduction in cell viability after 48 hrs by MTT assay. Type of experiment: functional, cell-based. A general note: Tetrazolium dyes change colour on reduction, which living cells bring about.
Another experiment relates to SGC-7901. The experiment can be described thus: Cytotoxicity against human SGC7901 assessed as reduction in cell viability after 48 hrs by MTT assay. It is filed as functional, cell-based. The note with it: SGC-7901, 48 h.
The subject of another experiment is A549. The experiment can be described thus: Cytotoxicity against human A549 assessed as reduction in cell viability after 48 hrs by MTT assay. It is filed as functional, cell-based. The note with it: A549, 48 h.
A further experiment relates to L02. The experiment can be described thus: Cytotoxicity against human L02 assessed as reduction in cell viability after 48 hrs by MTT assay. Type of experiment: cell-based. The note with it: L02, 48 h.
The next experiment has as its system MCF7. Description: Cytotoxicity against human MCF7 assessed as reduction in cell viability after 48 hrs by MTT assay. It is filed as functional, cell-based. The note with it: MCF7, 48 h.
The subject of the next experiment is HCT-116. Description: Cytotoxicity against human HCT116 assessed as reduction in cell viability after 48 hrs by MTT assay. It is filed as functional, cell-based. The note with it: HCT-116, 48 h.

Take `C#CCN1CCN(CC(=O)N2CCN(c3ccc(C(=O)c4cc5ccc(N(CC)CC)cc5o4)cc3)CC2)CC1`: the IC50 with HeLa is > 40 µM; in the experiment with SGC-7901, 20.1 µM; with A549, > 40 µM; in the experiment on L02, > 100 µM; with MCF7, > 40 µM; in the experiment with HCT-116, 17.7 µM.
On to `CCN(CC)c1ccc2cc(C(=O)c3ccc(N4CCN(C(=O)CN5CCN(CC(=O)c6ccc(C#N)cc6)CC5)CC4)cc3)oc2c1`, for which the 50% inhibitory concentration (IC50) with HeLa was 2.44 µM; in the experiment with SGC-7901 it was > 40 µM; with A549, 4.57 µM; with L02, > 100 µM; in the experiment on MCF7, 11.9 µM; in the experiment on HCT-116, > 40 µM.
Take `CCN(CC)c1ccc2cc(C(=O)c3ccc(N4CCN(C(=O)CN5CCN(Cc6ccc(C(F)(F)F)cc6)CC5)CC4)cc3)oc2c1`: the IC50 in the experiment on HeLa is > 40 µM; in the experiment on SGC-7901 it was 32 µM; with A549, 20.1 µM; in the experiment with L02, 6.54 µM; in the experiment with MCF7, 18.2 µM; in the experiment with HCT-116, > 40 µM.
Regarding `CCN(CC)c1ccc2cc(C(=O)c3ccc(N4CCN(C(=O)CN5CCNCC5)CC4)cc3)oc2c1`, the IC50 is 1.35 µM in the experiment with HeLa; 1.22 µM with SGC-7901; 0.32 µM with A549; > 100 µM in the experiment with L02; 5.34 µM with MCF7; 1.87 µM in the experiment with HCT-116.
Take `CCN(CC)c1ccc2cc(C(=O)c3ccc(N4CCN(C(=O)CN5CCN(C(=O)/C=C/c6ccccc6)CC5)CC4)cc3)oc2c1`: the IC50 with HeLa was 5.26 µM; in the experiment with SGC-7901, 1.14 µM; in the experiment on A549 it was 9.45 µM; with L02, > 100 µM; in the experiment with MCF7, 13.4 µM; in the experiment with HCT-116, 6.81 µM.
With `CCN(CC)c1ccc2cc(C(=O)c3ccc(N4CCN(C(=O)CN5CCN(CC(=O)c6ccc7ccccc7c6)CC5)CC4)cc3)oc2c1`, the concentration for half-maximal inhibition (IC50) is 17.1 µM in the experiment on HeLa; > 40 µM in the experiment on SGC-7901; 26.3 µM in the experiment with A549; > 100 µM in the experiment with L02; > 40 µM with MCF7; > 40 µM in the experiment on HCT-116.
Regarding `CCN(CC)c1ccc2cc(C(=O)c3ccc(N4CCN(C(=O)CN5CCN(C(=O)CCl)CC5)CC4)cc3)oc2c1`, the IC50 is 5.52 µM with HeLa; 1.63 µM in the experiment on SGC-7901; 3.06 µM with A549; 20.9 µM in the experiment with L02; > 40 µM in the experiment with MCF7; > 40 µM with HCT-116.
Turning to `CCN(CC)c1ccc2cc(C(=O)c3ccc(N4CCN(C(=O)CN5CCN(CC(=O)c6ccc(C)cc6)CC5)CC4)cc3)oc2c1`, the IC50 was 1.68 µM in the experiment on HeLa; > 40 µM with SGC-7901; 0.87 µM in the experiment on A549; 36.5 µM with L02; > 40 µM with MCF7; 13.4 µM in the experiment with HCT-116.
Turning to `O=c1[nH]cc(F)c(=O)[nH]1` [FLUOROURACIL], the IC50 in the experiment on HeLa came out at 10.7 µM; in the experiment on SGC-7901, 12 µM; in the experiment on A549, 10.6 µM; in the experiment on MCF7, 26.3 µM; with HCT-116, 15.5 µM.
For `CCN(CC)c1ccc2cc(C(=O)c3ccc(N4CCN(C(=O)CN5CCN(C(=O)c6ccc(F)cc6)CC5)CC4)cc3)oc2c1`, the half-inhibitory concentration (IC50) in the experiment with HeLa is > 40 µM; with SGC-7901, > 40 µM; with A549, > 40 µM; in the experiment on L02 it was > 100 µM; in the experiment on MCF7, > 40 µM; in the experiment on HCT-116, > 40 µM.
For the molecule `CCN(CC)c1ccc2cc(C(=O)c3ccc(N4CCN(C(=O)CN5CCN(CC(=O)c6ccc(OC)cc6)CC5)CC4)cc3)oc2c1`, the IC50 in the experiment with HeLa is 15.3 µM; in the experiment with SGC-7901, 8.91 µM; in the experiment on A549, 4.84 µM; in the experiment with L02, > 100 µM; in the experiment with MCF7 it was 16.7 µM; with HCT-116 it was 17.9 µM.
`CCN(CC)c1ccc2cc(C(=O)c3ccc(N4CCN(C(=O)CN5CCN(CC(=O)c6ccc(F)cc6)CC5)CC4)cc3)oc2c1`: the IC50 in the experiment with HeLa was 9.64 µM; in the experiment on SGC-7901, 3.44 µM; with A549, 0.57 µM; in the experiment with L02 it was 68.4 µM; in the experiment on MCF7, 16.7 µM; with HCT-116, 14.2 µM.
Regarding `CCN(CC)c1ccc2cc(C(=O)c3ccc(N4CCN(C(=O)CN5CCN(S(=O)(=O)c6ccc(OC(F)(F)F)cc6)CC5)CC4)cc3)oc2c1`, the IC50 with HeLa was 30.2 µM; in the experiment on SGC-7901, 24.4 µM; with A549 it was > 40 µM; in the experiment with L02, 34.7 µM; with MCF7, 20.1 µM; in the experiment on HCT-116 it was 7.68 µM.
For `CCN(CC)c1ccc2cc(C(=O)c3ccc(N4CCN(C(=O)CN5CCN(S(=O)(=O)c6ccc(F)cc6)CC5)CC4)cc3)oc2c1`, the IC50 in the experiment on HeLa was 16.7 µM; in the experiment with SGC-7901 it was > 40 µM; with A549, 33.2 µM; with L02, 9.24 µM; with MCF7, 20.5 µM; in the experiment with HCT-116, > 40 µM.
As for `CCN(CC)c1ccc2cc(C(=O)c3ccc(N4CCN(C(=O)CN5CCN(Cc6ccc(F)c(F)c6)CC5)CC4)cc3)oc2c1`, the IC50 in the experiment on HeLa was found to be 6.4 µM; with SGC-7901 it was 1.78 µM; with A549, 5.44 µM; in the experiment on L02, 10.2 µM; in the experiment with MCF7, 9.22 µM; in the experiment with HCT-116 it was 26.3 µM.
For the molecule `CCN(CC)c1ccc2cc(C(=O)c3ccc(N4CCN(C(=O)CN5CCN(S(=O)(=O)c6ccc(C(F)(F)F)cc6)CC5)CC4)cc3)oc2c1`, the IC50 was > 40 µM in the experiment with HeLa; > 40 µM in the experiment on SGC-7901; > 40 µM in the experiment with A549; 17 µM in the experiment with L02; 17.5 µM in the experiment on MCF7; 32.2 µM with HCT-116.
Turning to `CCN(CC)c1ccc2cc(C(=O)c3ccc(N4CCN(C(=O)CN5CCN(Cc6ccc(C#N)cc6)CC5)CC4)cc3)oc2c1`, the half-maximal inhibitory concentration (IC50) with HeLa was > 40 µM; in the experiment with SGC-7901 it was 26.2 µM; in the experiment on A549, 17.4 µM; in the experiment with L02, 29.6 µM; in the experiment on MCF7, > 40 µM; in the experiment with HCT-116, > 40 µM.
As to `CCOC(=O)CN1CCN(CC(=O)N2CCN(c3ccc(C(=O)c4cc5ccc(N(CC)CC)cc5o4)cc3)CC2)CC1`, the IC50 in the experiment with HeLa was 22.1 µM; in the experiment with SGC-7901, > 40 µM; in the experiment on A549, > 40 µM; in the experiment with L02 it was 68.7 µM; in the experiment on MCF7 it was > 40 µM; with HCT-116, > 40 µM.
With `CCN(CC)c1ccc2cc(C(=O)c3ccc(N4CCN(C(=O)CN5CCN(CC(C)=O)CC5)CC4)cc3)oc2c1`, the IC50 in the experiment with HeLa was 2.76 µM; in the experiment with SGC-7901, 2.21 µM; with A549 it was 8.92 µM; in the experiment on L02, > 100 µM; in the experiment with MCF7 it was 11 µM; in the experiment with HCT-116 it was 24 µM.
As to `CCN(CC)c1ccc2cc(C(=O)c3ccc(N4CCN(C(=O)CN5CCN(CC(=O)c6ccccc6)CC5)CC4)cc3)oc2c1`, the 50% inhibitory concentration (IC50) in the experiment with HeLa was found to be 3.12 µM; in the experiment with SGC-7901, 4.03 µM; with A549 it was 12.6 µM; with L02 it was 53.8 µM; in the experiment on MCF7, 34.5 µM; with HCT-116 it was 27.1 µM.
As to `CCN(CC)c1ccc2cc(C(=O)c3ccc(N4CCN(C(=O)CN5CCN(S(=O)(=O)C6CC6)CC5)CC4)cc3)oc2c1`, the IC50 was 28.1 µM with HeLa; 15.3 µM with SGC-7901; 17.3 µM in the experiment with A549; > 100 µM in the experiment on L02; > 40 µM in the experiment with MCF7; > 40 µM with HCT-116.
Take `CCN(CC)c1ccc2cc(C(=O)c3ccc(N4CCN(C(=O)CN5CCN(C(=O)c6cc(Cl)cc(Cl)c6)CC5)CC4)cc3)oc2c1`: the IC50 in the experiment on HeLa was 8.11 µM; in the experiment with SGC-7901, 2.72 µM; with A549, 6.74 µM; in the experiment with L02 it was > 100 µM; in the experiment on MCF7, 16.1 µM; in the experiment with HCT-116, 28 µM.
`CCN(CC)c1ccc2cc(C(=O)c3ccc(N4CCN(C(=O)CN5CCN(C(=O)c6ccc(C(F)(F)F)cc6)CC5)CC4)cc3)oc2c1`: the IC50 in the experiment with HeLa was > 40 µM; with SGC-7901 it was > 40 µM; with A549 it was > 40 µM; in the experiment on L02, 14.3 µM; in the experiment on MCF7, > 40 µM; with HCT-116, > 40 µM.
Turning to `CCN(CC)c1ccc2cc(C(=O)c3ccc(N4CCN(C(=O)CN5CCN(S(=O)(=O)c6ccc(C#N)cc6)CC5)CC4)cc3)oc2c1`, the IC50 was 8.47 µM in the experiment with HeLa; > 40 µM with SGC-7901; > 40 µM in the experiment with A549; 44.1 µM with L02; > 40 µM in the experiment with MCF7; 36.4 µM in the experiment on HCT-116.
